Values joined by “and” are separate entries in the source; they are usually repeats but may differ in a detail not shown here. Equal entries are not always repeated. Inconclusive results and toxic doses are left out. How the source made its calls: active means survival T/C of 150% or more; inactive means T/C below 125% in these data.
System: P388 leukemia ip, CD2F1 mice, survival T/C
Assay: NCI In Vivo Anticancer Drug Screen. Data for tumor model P388 Leukemia (intraperitoneal) in CD2F1 (CDF1) mice
Conditions: endpoint: median survival time, higher = longer survival
Procedure, shortened: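 Mice carrying the transplanted tumor received test compound or vehicle. Survival was recorded in each group, and the value is the treated-group measurement divided by that of the vehicle-treated control group.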

[1] = dose: 6.25 mg/kg/injection, schedule: Q01DX009 (ip), vehicle: saline with Tween-80
[2] = dose: 12.5 mg/kg/injection, schedule: Q01DX009 (ip), vehicle: saline with Tween-80
[3] = dose: 25.0 mg/kg/injection, schedule: Q01DX009 (ip), vehicle: saline with Tween-80
[4] = dose: 50.0 mg/kg/injection, schedule: Q01DX009 (ip), vehicle: saline with Tween-80
[5] = dose: 100.0 mg/kg/injection, schedule: Q01DX009 (ip), vehicle: saline with Tween-80
[6] = dose: 200.0 mg/kg/injection, schedule: Q01DX009 (ip), vehicle: saline with Tween-80

Measured: T/C

CC(CC1(c2ccccc2)C(=O)NC(=O)NC1=O)OC(=O)c1ccc([N+](=O)[O-])cc1 (stereo not drawn)
inactive: dose: 50.0 mg/kg/injection, schedule: Q01DX009 (ip), vehicle: Klucel (hydroxypropylcellulose) (HPC) 103 % of control | dose: 100.0 mg/kg/injection, schedule: Q01DX009 (ip), vehicle: Klucel (hydroxypropylcellulose) (HPC) 100 % of control | dose: 200.0 mg/kg/injection, schedule: Q01DX009 (ip), vehicle: Klucel (hydroxypropylcellulose) (HPC) 99 % of control

CC1OCC(Br)([N+](=O)[O-])CO1 (stereo not drawn)
inactive: dose: 3.12 mg/kg/injection, schedule: Q01DX009 (ip), vehicle: saline with Tween-80 104 % of control and 110 % of control | [1] 108 % of control and 112 % of control | [2] 100 % of control and 103 % of control and 113 % of control

CC(=O)OC1CCC2C3CCC4CC(=O)CCC4(C)C3CCC12C (stereo not drawn)
inactive: [3] 91 % of control | [4] 97 % of control | [5] 97 % of control | [6] 100 % of control

Cc1ccnc(NCCCNc2nccc(C)n2)n1
inactive: dose: 50.0 mg/kg/injection, schedule: Q01DX005 (ip), vehicle: Klucel (hydroxypropylcellulose) (HPC) 102 % of control | dose: 100.0 mg/kg/injection, schedule: Q01DX005 (ip), vehicle: Klucel (hydroxypropylcellulose) (HPC) 96 % of control | dose: 200.0 mg/kg/injection, schedule: Q01DX005 (ip), vehicle: Klucel (hydroxypropylcellulose) (HPC) 88 % of control

C=C(NC(C)=O)C(=O)O
inactive: [1] 103 % of control | [2] 101 % of control and 86 % of control | dose: 12.5 mg/kg/injection, schedule: Q04DX003 (ip), vehicle: saline with Tween-80 104 % of control | [3] 108 % of control | dose: 25.0 mg/kg/injection, schedule: Q04DX003 (ip), vehicle: saline with Tween-80 103 % of control | dose: 50.0 mg/kg/injection, schedule: Q04DX003 (ip), vehicle: saline with Tween-80 101 % of control | dose: 100.0 mg/kg/injection, schedule: Q01DX001 (ip), vehicle: saline with Tween-80 101 % of control

CC(=O)Nc1ccc2c(ccc3ccccc32)c1
inactive: [3] 107 % of control | [4] 113 % of control | [5] 118 % of control | [6] 115 % of control

CCN(CC)c1ccc(NC(=S)NN)cc1
inactive: dose: 60.0 mg/kg/injection, schedule: Q01DX005 (ip), vehicle: Klucel (hydroxypropylcellulose) (HPC) 100 % of control | dose: 120.0 mg/kg/injection, schedule: Q01DX005 (ip), vehicle: Klucel (hydroxypropylcellulose) (HPC) 97 % of control

C(=C\c1csnn1)/c1ccc(/C=C/c2csnn2)cc1
inactive: dose: 60.0 mg/kg/injection, schedule: Q01DX005 (ip), vehicle: saline with Tween-80 100 % of control | dose: 120.0 mg/kg/injection, schedule: Q01DX005 (ip), vehicle: saline with Tween-80 100 % of control | dose: 240.0 mg/kg/injection, schedule: Q01DX005 (ip), vehicle: saline with Tween-80 100 % of control

Cc1ccc(C[N+](C)(C)CCCCCOc2c(Br)cc(Br)cc2Br)o1
inactive: dose: 3.13 mg/kg/injection, schedule: Q04DX003 (ip), vehicle: Klucel (hydroxypropylcellulose) (HPC) 101 % of control | dose: 6.25 mg/kg/injection, schedule: Q04DX003 (ip), vehicle: Klucel (hydroxypropylcellulose) (HPC) 94 % of control | dose: 12.5 mg/kg/injection, schedule: Q04DX003 (ip), vehicle: Klucel (hydroxypropylcellulose) (HPC) 98 % of control and 106 % of control

O=C1c2ccccc2-c2c1c1ccccc1c(=O)n2-c1ccccc1
inactive: dose: 50.0 mg/kg/injection, schedule: Q01DX005 (ip), vehicle: saline with Tween-80 102 % of control | dose: 100.0 mg/kg/injection, schedule: Q01DX005 (ip), vehicle: saline with Tween-80 107 % of control | dose: 200.0 mg/kg/injection, schedule: Q01DX005 (ip), vehicle: saline with Tween-80 100 % of control

CCOC(=O)c1cc2c(OC)c(OC)ccc2cc1N
inactive: dose: 12.5 mg/kg/injection, schedule: Q01DX009 (ip), vehicle: other 100 % of control | dose: 25.0 mg/kg/injection, schedule: Q01DX009 (ip), vehicle: other 103 % of control | dose: 50.0 mg/kg/injection, schedule: Q01DX009 (ip), vehicle: other 100 % of control | dose: 100.0 mg/kg/injection, schedule: Q01DX009 (ip), vehicle: other 115 % of control

C=C1[C@H]2C[C@H]2[C@]2(C)C[C@@H]3OC(=O)C(C)=C3C[C@@H]12
inactive: dose: 4.88 mg/kg/injection, schedule: Q01DX005 (ip), vehicle: Klucel (hydroxypropylcellulose) (HPC) 89 % of control | dose: 9.75 mg/kg/injection, schedule: Q01DX005 (ip), vehicle: Klucel (hydroxypropylcellulose) (HPC) 94 % of control | dose: 39.0 mg/kg/injection, schedule: Q01DX005 (ip), vehicle: Klucel (hydroxypropylcellulose) (HPC) 94 % of control | dose: 78.0 mg/kg/injection, schedule: Q01DX005 (ip), vehicle: Klucel (hydroxypropylcellulose) (HPC) 94 % of control

Source: PubChem BioAssay AID330 (DTP/NCI, 2004)
